The text below walks through data of US20250230172A1 (Vanqua Bio, Inc., priority 2021, published 2025).

Molecules are shown by their SMILES.

For the assay, the target named is T1, GCase (Homo sapiens, UniProt P04062).
T1 construct: endogenous in cells; host or cells: HeLa cells
T1 sequence (P04062 40-536): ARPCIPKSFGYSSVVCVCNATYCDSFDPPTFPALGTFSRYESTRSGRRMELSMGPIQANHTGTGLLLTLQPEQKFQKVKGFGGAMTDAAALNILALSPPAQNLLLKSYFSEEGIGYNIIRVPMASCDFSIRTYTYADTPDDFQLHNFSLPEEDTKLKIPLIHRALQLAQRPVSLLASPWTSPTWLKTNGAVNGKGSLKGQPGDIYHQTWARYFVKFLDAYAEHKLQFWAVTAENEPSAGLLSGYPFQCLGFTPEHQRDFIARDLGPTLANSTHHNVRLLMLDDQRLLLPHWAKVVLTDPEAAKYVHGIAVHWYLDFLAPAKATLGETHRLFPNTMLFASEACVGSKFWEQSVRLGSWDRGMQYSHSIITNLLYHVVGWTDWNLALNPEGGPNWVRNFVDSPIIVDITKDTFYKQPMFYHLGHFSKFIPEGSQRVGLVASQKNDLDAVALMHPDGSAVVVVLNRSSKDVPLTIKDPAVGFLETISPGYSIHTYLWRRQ
The experiment in a line: live cell PFB assay in HELA cells for activation of GCase. The format is cell-based. Here is the method: Exemplary compounds were evaluated for activation of GCase in a live cell PFB assay in HELA cells (essentially as described in Ysselstein et al., “LRRK2 kinase activity regulates lysosomal glucocerebrosidase in neurons derived from Parkinson's disease patients” Nature Communications (2019) 10:5570). […] EC50 ranges: A: <10 μM; B: >10-50 μM; C: >50-100 μM; D: >100 μM.
A word on the EC50: it is the midpoint of the concentration-response curve. Higher therefore signals weaker potency. `FC(F)Cn1ncc2ncc(N3C[C@H]4CCN(c5cccnc5C(F)(F)F)C[C@H]4C3)nc21` (racemic) [Compound 4, rac-3-[(3aR,7aR)-2-[1-(2,2-difluoroethyl)-1H-pyrazolo[3,4-b]pyrazin-6-yl]-octahydro-1H-pyrrolo[3,4-c]pyridin-5-yl]-2-(trifluoromethyl)pyridine] registered a half-maximal effective concentration (EC50) below 10 µM.
The compound `FC(F)Cn1ncc2ncc(N3CC[C@@H]4CN(c5cncc(C(F)(F)F)c5)C[C@@H]4C3)nc21` (racemic) [Compound 10, rac-3-[(3aR,7aS)-5-[1-(2,2-difluoroethyl)-1H-pyrazolo[3,4-b]pyrazin-6-yl]-octahydro-1H-pyrrolo[3,4-c]pyridin-2-yl]-5-(trifluoromethyl)pyridine] came in with an EC50 of 10 to 50 µM.
On to `FC(F)Cn1ncc2ncc(N3CC[C@@H]4CN(c5ccc(C(F)(F)F)nc5)C[C@@H]4C3)nc21` (racemic) [Compound 12, rac-5-[(3aR,7aS)-5-[1-(2,2-difluoroethyl)-1H-pyrazolo[3,4-b]pyrazin-6-yl]-octahydro-1H-pyrrolo[3,4-c]pyridin-2-yl]-2-(trifluoromethyl)pyridine], for which the EC50 lay within 10 to 50 µM.
In the case of `FC(F)Cn1ncc2ncc(N[C@@H]3C[C@@H]4CN(c5cccc(C(F)(F)F)n5)C[C@@H]4C3)nc21` [Compound 32, (3aR,5S,6aS)—N-[1-(2,2-difluoroethyl)-1H-pyrazolo[3,4-b]pyrazin-6-yl]-2-[6-(trifluoromethyl)pyridin-2-yl]-octahydrocyclopenta[c]pyrrol-5-amine], the concentration for a half-maximal effect (EC50) is below 10 µM.
In the case of `FC(F)Cn1ncc2ncc(N3C[C@H]4CN(c5ccc(C(F)(F)F)nc5)C[C@H]4C3)nc21` [Compound 47, rac-5-[(3aR,6aS)-5-[1-(2,2-difluoroethyl)-1H-pyrazolo[3,4-b]pyrazin-6-yl]-octahydropyrrolo[3,4-c]pyrrol-2-yl]-2-(trifluoromethyl)pyridine], the EC50 was in the range of 10 to 50 µM.
`O=C1C2CN(c3cnc4cnn(CC(F)F)c4n3)CCC2CN1c1cccc(C(F)(F)F)n1` (stereo not drawn) [Compound 65, 5-(1-(2,2-difluoroethyl)-1H-pyrazolo[3,4-b]pyrazin-6-yl)-2-(6-(trifluoromethyl)pyridin-2-yl)octahydro-3H-pyrrolo[3,4-c]pyridin-3-one] registered an EC50 below 10 µM.
`FC(F)Cn1ncc2ncc(N3CC[C@@H]4CN(c5ccnc(C(F)(F)F)c5)C[C@@H]4C3)nc21` (racemic) [Compound 21, rac-4-[(3aR,7aS)-5-[1-(2,2-difluoroethyl)-1H-pyrazolo[3,4-b]pyrazin-6-yl]-octahydro-1H-pyrrolo[3,4-c]pyridin-2-yl]-2-(trifluoromethyl)pyridine] registered an EC50 below 10 µM.
Regarding `O=C(c1ccc2cc[nH]c2c1)N1CCN2C[C@H](Oc3cccnc3C(F)(F)F)C[C@H]2C1` [Compound 28, 6-[(7R,8aS)-7-{[2-(trifluoromethyl)pyridin-3-yl]oxy}-octahydropyrrolo[1,2-a]pyrazine-2-carbonyl]-1H-indole], the EC50 lay within 10 to 50 µM.
`FC(F)Cn1ncc2ncc(N[C@H]3C[C@@H]4CN(c5cnc(C(F)(F)F)nc5)C[C@@H]4C3)nc21` [Compound 88, 1-(2,2-difluoroethyl)-N-((3aR,5s,6aS)-2-(2-(trifluoromethyl)pyrimidin-5-yl)octahydrocyclopenta[c]pyrrol-5-yl)-1H-pyrazolo[3,4-b]pyrazin-6-amine]: the EC50 is below 10 µM.
As for `COc1nccnc1N1C[C@H]2C[C@H](Nc3cnc4cnn(CC(F)F)c4n3)C[C@H]2C1` [Compound 81, 1-(2,2-difluoroethyl)-N-((3aR,5s,6aS)-2-(3-methoxypyrazin-2-yl)octahydrocyclopenta[c]pyrrol-5-yl)-1H-pyrazolo[3,4-b]pyrazin-6-amine], the figure is 10 to 50 µM; as for `FC(F)Cn1ncc2ncc(N3CC[C@@H]4CN(c5ccc(C(F)(F)F)cn5)C[C@H]4C3)nc21` (single isomer, unassigned) [Compound 68], 10 to 50 µM.
As for `FC(F)Cn1ncc2ncc(N3C[C@H]4CN(c5cccc(C(F)(F)F)n5)C[C@H]4C3)nc21` [Compound 45, rac-2-[(3aR,6aS)-5-[1-(2,2-difluoroethyl)-1H-pyrazolo[3,4-b]pyrazin-6-yl]-octahydropyrrolo[3,4-c]pyrrol-2-yl]-6-(trifluoromethyl)pyridine], the figure is above 100 µM.
`O=C1C2CCN(c3cnc4cnn(CC(F)F)c4n3)CC2CN1c1cccc(C(F)(F)F)n1` (stereo not drawn) [Compound 67, 5-(1-(2,2-difluoroethyl)-1H-pyrazolo[3,4-b]pyrazin-6-yl)-2-(6-(trifluoromethyl)pyridin-2-yl)octahydro-1H-pyrrolo[3,4-c]pyridin-1-one] had an EC50 below 10 µM.
Turning to `FC(F)Cn1ncc2ncc(N[C@H]3C[C@@H]4CN(c5cncc(C(F)(F)F)n5)C[C@@H]4C3)nc21` [Compound 78, 1-(2,2-difluoroethyl)-N-((3aR,5s,6aS)-2-(6-(trifluoromethyl)pyrazin-2-yl)octahydrocyclopenta[c]pyrrol-5-yl)-1H-pyrazolo[3,4-b]pyrazin-6-amine], the EC50 was below 10 µM.
In the case of `FC(F)Cn1ncc2ncc(N3CC[C@@H]4CN(c5cc(C(F)(F)F)ccn5)C[C@@H]4C3)nc21` (racemic) [Compound 3], the EC50 was below 10 µM.
Turning to `FC(F)Cn1ncc2ncc(N3C[C@H]4CCN(c5ncccc5C(F)(F)F)C[C@H]4C3)nc21` (racemic) [Compound 17], the half-maximal effective concentration (EC50) lay within 10 to 50 µM.
For `FC(F)Cn1ncc2ncc(N3C[C@@H]4CN(c5cccc(C(F)(F)F)n5)C[C@H]4C3)nc21` (racemic) [Compound 46, rac-2-[(3aR,6aR)-5-[1-(2,2-difluoroethyl)-1H-pyrazolo[3,4-b]pyrazin-6-yl]-octahydropyrrolo[3,4-c]pyrrol-2-yl]-6-(trifluoromethyl)pyridine], the EC50 was in the range of 50 to 100 µM.
Regarding `FC(F)Cn1ncc2ncc(N[C@@H]3C[C@@H]4CN(c5cccnc5C(F)(F)F)C[C@@H]4C3)nc21` [Compound 36, (3aR,5S,6aS)—N-[1-(2,2-difluoroethyl)-1H-pyrazolo[3,4-b]pyrazin-6-yl]-2-[2-(trifluoromethyl)pyridin-3-yl]-octahydrocyclopenta[c]pyrrol-5-amine], the EC50 was below 10 µM.
The compound `FC(F)Cn1ncc2ncc(N[C@H]3CC[C@@H]4CN(c5cccc(C(F)(F)F)n5)C[C@@H]4C3)nc21` (single isomer, unassigned) [Compound 70] registered an EC50 below 10 µM.
`FC(F)Cn1ncc2ncc(N[C@H]3C[C@@H]4CN(c5nccc(C(F)(F)F)n5)C[C@@H]4C3)nc21` [Compound 85, 1-(2,2-difluoroethyl)-N-((3aR,5s,6aS)-2-(4-(trifluoromethyl)pyrimidin-2-yl)octahydrocyclopenta[c]pyrrol-5-yl)-1H-pyrazolo[3,4-b]pyrazin-6-amine] gave an EC50 below 10 µM.
For the compound `FC(F)Cn1ncc2ncc(N[C@H]3C[C@@H]4CN(c5ccc(C(F)(F)F)nn5)C[C@@H]4C3)nc21` [Compound 82, 1-(2,2-difluoroethyl)-N-((3aR,5s,6aS)-2-(6-(trifluoromethyl)pyridazin-3-yl)octahydrocyclopenta[c]pyrrol-5-yl)-1H-pyrazolo[3,4-b]pyrazin-6-amine], the EC50 was 10 to 50 µM.
